# Counter-ions that a name gives are not always drawn.
# Tested on: Dog PRP (platelet aggregation)
# Assay: In-vitro platelet aggregation in PRP (ADP-induced)
# Format: cell-based
# Details: Canis lupus familiaris, adenosine 5'diphosphate (ADP) induced, by linear regression of dose response curve
# Description: In-Vitro Platelet Aggregation in PRP
# Healthy male or female dogs were fasted for 8 hours prior to drawing blood; then 30 ml whole blood was collected using a butterfly needle and 30 cc plastic syringe with 3 ml of 0.129M buffered sodium citrate (3.8%). The syringe was rotated carefully as blood was drawn to mix the citrate. Platelet-rich plasma (PRP) was prepared by centrifugation at 975× g for 3.17 minutes at room temperature, allowing the centrifuge to coast to a stop without braking. The PRP was removed from the blood with a plastic pipette and placed in a plastic capped, 50 ml Corning conical sterile centrifuge tube which was held at room temperature. Platelet poor plasma (PPP) was prepared by centrifuging the remaining blood at 2000× g for 15 minutes at room temperature allowing the centrifuge to coast to a stop without braking. The PRP was adjusted with PPP to a count of 2-3×10^8 platelets per ml. 400 μl of the PRP preparation and 50 μl of the compound to be tested or saline were preincubated for 1 minute at 37° C. in a BioData aggregometer (BioData, Horsham, Pa.). 50 μl of adenosine 5'diphosphate (ADP) (50 μm final concentration) was added to the cuvettes and the aggregation was monitored for 1 minute. All compounds are tested in duplicate. Results are calculated as follows:
# Percent of control=[(maximal OD minus initial OD of compound) divided by (maximal OD minus initial OD of control saline)]×100. The % inhibition=100-(percent of control).
# In Table A, two readings given in a single box indicate that two trials, rather than a single trial, were run for that particular compound in that particular assay.
smiles,measurement,value
"N=C(N)c1ccc(CCCCNC(=O)[C@@H](CC(=O)O)NC(=O)OCc2ccccc2)cc1 [Compound 52513, 4-[[4-[4-(aminoiminomethyl)phenyl]butyl]amino]-4-oxo-3(R)-[[(Phenylmethoxy)carbonyl]amino]butanoic acid]",IC50,3 µM
"N=C(N)c1ccc(CCCCNC(=O)[C@@H](CCC(=O)O)NC(=O)OCc2ccccc2)cc1 [Compound 52809, 5-[[4-[4-(aminoiminomethyl)phenyl]butyl]amino]-5-oxo-4(R)-[[(phenylmethoxy)carbonyl]amino]pentanoic acid]",IC50,1.8 µM
"N=C(N)c1ccc(CCCCNC(=O)[C@H](CCC(=O)O)NC(=O)OCc2ccccc2)cc1 [Compound 52828, 5-[[4-[4-(aminoiminomethyl)phenyl]butyl]amino]-5-oxo-4(S)-[[(phenylmethoxy)carbonyl]amino]pentanoic acid]",IC50,4.2 µM
"Cc1ccc(S(=O)(=O)N[C@H](CC(=O)O)C(=O)NCCCCc2ccc(C(=N)N)cc2)cc1 [Compound 53010, 4-[[4-[4-(aminoiminomethyl)phenyl]butyl]amino]-4-oxo-3R-[[(4-methylphenyl)sulfonyl]amino]butanoic acid]",IC50,6 µM
"CCOC(=O)CC[C@@H](NC(=O)OCc1ccccc1)C(=O)NCCCCc1ccc(C(=N)N)cc1 [Compound 53033, ethyl 5-[[4-[4-(aminoiminomethyl)phenyl]butyl]amino]-5-oxo-4R-[[(phenylmethoxy)carbonyl]amino]pentanoate, monohydrochloride]",IC50,7 µM
"CS(=O)(=O)N[C@H](CCC(=O)O)C(=O)NCCCCc1ccc(C(=N)N)cc1 [Compound 53065, 5-[[4-[4-(aminoiminomethyl)phenyl]butyl]amino]-5-oxo-4(R)-methylsulfonylaminopentanoic acid]",IC50,3.5 µM
"N=C(N)c1ccc(CCCCNC(=O)[C@H](CCC(=O)O)NC(=O)CCc2ccccc2)cc1 [Compound 53112, 5-[[4-[4-(aminoiminomethyl)phenyl]butyl]amino]-5-oxo-4S-[1-oxo-3-phenylpropylamino]pentanoic acid]",IC50,1.9 µM
"N=C(N)c1ccc(CCCCNC(=O)[C@@H](CC(=O)O)NC(=O)CCc2ccccc2)cc1 [Compound 53143, 4-[[4-[4-(aminoiminomethyl)phenyl]butyl]amino]-4-oxo-3R-[(1-oxo-3-phenylpropyl)amino]butanoic acid]",IC50,4.1 µM
"N=C(N)c1ccc(C#CCCCNC(=O)[C@@H](CCC(=O)O)NC(=O)OCc2ccccc2)cc1 [Compound 53314, 5-[[5-[4-(aminoiminomethyl)phenyl]-4-pentynyl]amino]-5-oxo-4R-[[(phenylmethoxy)carbonyl]amino]pentanoic acid]",IC50,2 µM

# Source: patent US5424334A, “Peptide mimetic compounds useful as platelet aggregation inhibitors” (G. D. Searle & Co., priority 1991, dated 1995)
